Experimental data as given in patent US9958439B2, “Carbohydrate detection” (RICHTER LIFE SCIENCE DEVELOPMENT AB, priority 2012, dated 2018).
Like-named read-outs stand apart in the source and are kept apart here.

Columns and labels:
[1] = Procedure, shortened: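 LCO probes at 3 μM mixed with serial two-fold carbohydrate dilutions in water (10–0.039 or 5–0.019 mg/ml), run in triplicate. Excitation scanned 300–500 nm with emission at 545 nm; detection based on reproducible λmax or RFU shift against the no-carbohydrate control, with linear regression of RFU on concentration.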
[2] = for RFU change (Correlation analysis): probe-specific excitation λ, emission 545 nm; for Gradient Parameters (gradient of regression line) / Linear relationship / Quality of Gradient: linear regression
Procedure, shortened: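 LCO probes at 3 μM mixed with serial twofold carbohydrate dilutions in dH2O (10–0.039 or 5–0.019 mg/ml, depending on carbohydrate). Excitation scanned 300–500 nm, emission read at 545 nm; detection defined as reproducible shift in λmax and/or RFU relative to negative control, with linear regression of RFU against concentration.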

[3] = remark: listed apart in the source
Procedure, shortened: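 LCO probes (3 μM) were added to serial two-fold dilutions of carbohydrate suspensions in dH2O, with excitation scanned 300–500 nm and emission at 545 nm. Detection was a reproducible λmax and/or RFU change versus no-carbohydrate control. RFU was regressed linearly against concentration at the λmax or the lowest-background excitation.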

[4] = remark: listed apart in the source
Procedure, shortened: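 3 μM of each LCO probe was added to serial two-fold carbohydrate dilutions in water (10–0.039 or 5–0.019 mg/ml). Excitation spectra were scanned 300–500 nm with emission at 545 nm, in triplicate. Detection was defined as a reproducible shift in λmax and/or RFU versus negative control, with linear regression of RFU against concentration.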

[5] = for RFU change (Correlation analysis): probe-specific excitation λ, emission 545 nm
Procedure, shortened: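 Each LCO probe at 3 μM was added to two-fold serial dilutions of carbohydrate in dH2O (10–0.039 mg/ml for β-1,3-glucan, cellulose, chitin; 5–0.019 mg/ml for the others), run in triplicate. Excitation spectra were scanned 300–500 nm with emission at 545 nm. Detection was a reproducible λmax and/or RFU shift versus negative control, with linear regression of RFU against concentration.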

[6] = for RFU change (Correlation analysis): probe-specific excitation λ, emission 545 nm; remark: listed apart in the source
Procedure, shortened: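 LCO probes at 3 μM mixed with serial two-fold dilutions of carbohydrate in dH2O (10–0.039 or 5–0.019 mg/ml, depending on carbohydrate), in triplicate. Excitation scanned 300–500 nm or fixed per probe (λmax or lowest background), emission at 545 nm. Detection taken as reproducible λmax/RFU shift vs no-carbohydrate control; RFU regressed linearly on concentration.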

[7] = glucose concentration vs RFU, linear regression
[8] = Glycogen 5-0.019 mg/ml, 3 μM probe, spectral analysis, Excitation 300-500, Emission 545
[9] = sodium alginate concentration vs RFU, linear regression
[10] = Chondroitin Sulfate A 5-0.019 mg/ml, 3 μM probe, spectral analysis, Excitation 300-500, Emission 545
[11] = Chondroitin Sulfate A concentration vs RFU, linear regression
[12] = Chitin 10-[…], 3 μM probe, spectral analysis, Excitation 300-500, Emission 545
[13] = cellulose concentration vs RFU, linear regression
[14] = chitin concentration vs RFU, linear regression
[15] = β-1,3-glucan concentration vs RFU, linear regression
[16] = Cellulobiose 5-0.019 mg/ml, 3 μM probe, spectral analysis, Excitation 300-500, Emission 545
[17] = amylose concentration vs RFU, linear regression
[18] = cellulobiose concentration vs RFU, linear regression

## O=C(Cc1cc(-c2cccs2)sc1-c1ccc(-c2sc(-c3cccs3)cc2CC(=O)N[C@@H](Cc2ccc([O-])cc2)C(=O)[O-])s1)N[C@@H](Cc1ccc([O-])cc1)C(=O)[O-].[Na+].[Na+].[Na+].[Na+] [pHTA-Tyr, penta Hydrogen Thiophene Acetic acid Tyrosine]
[1]; Glucose 5-0.019 mg/ml, 3 μM probe, probe-specific excitation λ, emission 545 nm
  RFU change (Correlation analysis): Increases
[1]; Glucose 5-0.019 mg/ml, 3 μM probe, spectral analysis, Excitation 300-500, Emission 545
  RFU change (Signal deviation with increasing [Carbohydrate]): Increases
[1]; Glucose, conclusion from change in signal magnitude and/or shift in λmax
  carbohydrate can be detected and/or differentiated by the LCO: can be detected and/or differentiated
[1]; [7]
  Gradient Parameters (gradient of regression line): 799.4 ± 95.1
  Linear relationship: Significant
  Quality of Gradient: Positive
[1]; to glucose
  Sensitivity: Yes
[2]; Glycogen 5-0.019 mg/ml, 3 μM probe
  RFU change (Correlation analysis): Decreases
[2]; [8]
  RFU change (Signal deviation with increasing [Carbohydrate]): Decreases
  λmax change: Redshift
[2]; Glycogen, conclusion from change in signal magnitude and/or shift in λmax
  carbohydrate can be detected and/or differentiated by the LCO: can be detected and/or differentiated
[2]; Heparin 5-0.019 mg/ml, 3 μM probe
  RFU change (Correlation analysis): Increases
[2]; Heparin 5-0.019 mg/ml, 3 μM probe, spectral analysis, Excitation 300-500, Emission 545
  RFU change (Signal deviation with increasing [Carbohydrate]): Increases
[2]; glycogen concentration vs RFU
  Gradient Parameters (gradient of regression line): −2062 ± 216.6
  Linear relationship: Significant
  Quality of Gradient: Negative
[2]; heparin concentration vs RFU
  Gradient Parameters (gradient of regression line): 74.5 ± 80.7
  Linear relationship: Not Significant
  Quality of Gradient: Horizontal
[2]; to glycogen
  Sensitivity: Yes
[2]; to heparin
  Sensitivity: No
[3]; Sodium alginate 5-0.019 mg/ml, 3 μM probe, probe-specific excitation λ, emission 545 nm
  RFU change (Correlation analysis): Unclear
[3]; Sodium alginate 5-0.019 mg/ml, 3 μM probe, spectral analysis, Excitation 300-500, Emission 545
  RFU change (Signal deviation with increasing [Carbohydrate]): Increases
[3]; [9]
  Gradient Parameters (gradient of regression line): 30.9 ± 175.5
  Quality of Gradient: Horizontal
[3]; to sodium alginate
  Sensitivity: No
[4]; Chondroitin Sulfate A 5-0.019 mg/ml, 3 μM probe, probe-specific excitation λ, emission 545 nm
  RFU change (Correlation analysis): Increases
[4]; [10]
  RFU change (Signal deviation with increasing [Carbohydrate]): Increases
  λmax change: No change
[4]; [11]
  Gradient Parameters (gradient of regression line): 163.3 ± 61.5
  Linear relationship: Significant
  Quality of Gradient: Positive
[4]; Chondroitin sulfate A, conclusion from change in signal magnitude and/or shift in λmax
  carbohydrate can be detected and/or differentiated by the LCO: can be detected and/or differentiated
[4]; to Chondroitin Sulfate A
  Sensitivity: Yes
[5]; Cellulose 10-[…], 3 μM probe
  RFU change (Correlation analysis): Unclear
[5]; Cellulose 10-[…], 3 μM probe, spectral analysis, Excitation 300-500, Emission 545
  RFU change (Signal deviation with increasing [Carbohydrate]): Unclear
[5]; Chitin 10-[…], 3 μM probe
  RFU change (Correlation analysis): Increases
[5]; [12]
  RFU change (Signal deviation with increasing [Carbohydrate]): Increases
  λmax change: Redshift
[5]; Chitin, conclusion from change in signal magnitude and/or shift in λmax
  carbohydrate can be detected and/or differentiated by the LCO: can be detected and/or differentiated
[5]; [13]
  Gradient Parameters (gradient of regression line): −51.4 ± 45.0
  Quality of Gradient: Horizontal
[5]; [14]
  Gradient Parameters (gradient of regression line): 972.3 ± 109.7
  Linear relationship: Significant
  Quality of Gradient: Positive
[5]; to cellulose
  Sensitivity: No
[5]; to chitin
  Sensitivity: Yes
[5]; to β-1,3-glucan
  Sensitivity: No
[5]; β-1,3-glucan 10-[…], 3 μM probe
  RFU change (Correlation analysis): Decrease
[5]; β-1,3-glucan 10-[…], 3 μM probe, spectral analysis, Excitation 300-500, Emission 545
  RFU change (Signal deviation with increasing [Carbohydrate]): Decrease
[5]; [15]
  Gradient Parameters (gradient of regression line): −53.2 ± 47.5
  Quality of Gradient: Horizontal
[6]; Amylose 5-0.019 mg/ml, 3 μM probe
  RFU change (Correlation analysis): Unclear
[6]; Amylose 5-0.019 mg/ml, 3 μM probe, spectral analysis, Excitation 300-500, Emission 545
  RFU change (Signal deviation with increasing [Carbohydrate]): Unclear
[6]; Cellulobiose 5-0.019 mg/ml, 3 μM probe
  RFU change (Correlation analysis): Increases
[6]; [16]
  RFU change (Signal deviation with increasing [Carbohydrate]): Increases
  λmax change: No change
[6]; Cellulobiose, conclusion from change in signal magnitude and/or shift in λmax
  carbohydrate can be detected and/or differentiated by the LCO: can be detected and/or differentiated
[6]; [17]
  Gradient Parameters (gradient of regression line): −133.1 ± 128.5
  Quality of Gradient: Horizontal
[6]; [18]
  Gradient Parameters (gradient of regression line): 56.7 ± 16
  Linear relationship: Significant
  Quality of Gradient: Positive
[6]; to amylose
  Sensitivity: No
[6]; to cellulobiose
  Sensitivity: Yes
